Test results: ChEMBL document CHEMBL1909046, “DrugMatrix in vitro pharmacology data”

Assays:
[1] = target: T1, Alpha-1B adrenergic receptor (Rattus norvegicus, UniProt P15823); test: DRUGMATRIX: Alpha-1B adrenergic receptor radioligand binding (ligand: prazosin); assay type: cell membranes, Wistar, Liver, Membrane; conditions: Not Active = under 50% inhibition at 10 µM
T1 sequence (P15823 whole entry): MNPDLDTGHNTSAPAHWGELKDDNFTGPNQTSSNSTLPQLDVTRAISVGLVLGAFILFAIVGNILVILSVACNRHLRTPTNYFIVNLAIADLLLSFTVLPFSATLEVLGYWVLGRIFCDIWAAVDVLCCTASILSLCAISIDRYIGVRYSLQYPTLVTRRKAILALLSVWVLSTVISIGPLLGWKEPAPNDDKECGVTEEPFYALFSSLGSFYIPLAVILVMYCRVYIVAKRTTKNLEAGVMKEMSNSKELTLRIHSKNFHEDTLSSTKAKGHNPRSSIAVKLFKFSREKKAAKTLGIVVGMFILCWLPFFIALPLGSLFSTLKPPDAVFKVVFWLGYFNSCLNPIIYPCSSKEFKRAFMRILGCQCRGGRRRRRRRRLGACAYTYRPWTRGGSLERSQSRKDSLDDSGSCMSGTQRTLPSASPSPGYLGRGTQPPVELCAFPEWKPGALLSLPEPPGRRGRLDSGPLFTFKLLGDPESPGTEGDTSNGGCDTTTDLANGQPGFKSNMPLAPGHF

[2] = target: Beta-2 adrenergic receptor (Homo sapiens, UniProt P07550); test: DRUGMATRIX: Adrenergic beta2 radioligand binding (ligand: [3H] CGP-12177); assay type: cell membranes, Membrane; conditions: cho; Not Active = under 50% inhibition at 10 µM
[3] = target: 5-hydroxytryptamine receptor 4 (Cavia porcellus, UniProt O70528); assay type: cell membranes, Dunkin-Hartley, Striatum, Membrane; also: in other assays of this panel Not Active means under 50% inhibition at 10 µM
[4] = DRUGMATRIX: GABAA, Muscimol, Central radioligand binding (ligand: [3H] Muscimol); assay type: cell membranes, Rattus norvegicus, Wistar, Brain, Membrane; conditions: Not Active = under 50% inhibition at 10 µM
[5] = DRUGMATRIX: Phosphodiesterase PDE4 enzyme inhibition (substrate: [3H]cAMP + cAMP); conditions: u-937; Not Active = under 50% inhibition at 10 µM
[6] = target: Platelet-activating factor receptor (Homo sapiens, UniProt P25105); test: biochemical; assay type: tissue-based; conditions: platelet; also: in other assays of this panel Not Active means under 50% inhibition at 10 µM
[7] = target: T2, Angiotensin-converting enzyme (Oryctolagus cuniculus, UniProt P12822); test: biochemical; assay type: tissue-based, Lung;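 also: enzymatic inhibition of angiotensin-converting enzyme measured with FAPGG as the substrate; in other assays of this panel Not Active means under 50% inhibition at 10 µM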
T2 sequence (P12822 whole entry): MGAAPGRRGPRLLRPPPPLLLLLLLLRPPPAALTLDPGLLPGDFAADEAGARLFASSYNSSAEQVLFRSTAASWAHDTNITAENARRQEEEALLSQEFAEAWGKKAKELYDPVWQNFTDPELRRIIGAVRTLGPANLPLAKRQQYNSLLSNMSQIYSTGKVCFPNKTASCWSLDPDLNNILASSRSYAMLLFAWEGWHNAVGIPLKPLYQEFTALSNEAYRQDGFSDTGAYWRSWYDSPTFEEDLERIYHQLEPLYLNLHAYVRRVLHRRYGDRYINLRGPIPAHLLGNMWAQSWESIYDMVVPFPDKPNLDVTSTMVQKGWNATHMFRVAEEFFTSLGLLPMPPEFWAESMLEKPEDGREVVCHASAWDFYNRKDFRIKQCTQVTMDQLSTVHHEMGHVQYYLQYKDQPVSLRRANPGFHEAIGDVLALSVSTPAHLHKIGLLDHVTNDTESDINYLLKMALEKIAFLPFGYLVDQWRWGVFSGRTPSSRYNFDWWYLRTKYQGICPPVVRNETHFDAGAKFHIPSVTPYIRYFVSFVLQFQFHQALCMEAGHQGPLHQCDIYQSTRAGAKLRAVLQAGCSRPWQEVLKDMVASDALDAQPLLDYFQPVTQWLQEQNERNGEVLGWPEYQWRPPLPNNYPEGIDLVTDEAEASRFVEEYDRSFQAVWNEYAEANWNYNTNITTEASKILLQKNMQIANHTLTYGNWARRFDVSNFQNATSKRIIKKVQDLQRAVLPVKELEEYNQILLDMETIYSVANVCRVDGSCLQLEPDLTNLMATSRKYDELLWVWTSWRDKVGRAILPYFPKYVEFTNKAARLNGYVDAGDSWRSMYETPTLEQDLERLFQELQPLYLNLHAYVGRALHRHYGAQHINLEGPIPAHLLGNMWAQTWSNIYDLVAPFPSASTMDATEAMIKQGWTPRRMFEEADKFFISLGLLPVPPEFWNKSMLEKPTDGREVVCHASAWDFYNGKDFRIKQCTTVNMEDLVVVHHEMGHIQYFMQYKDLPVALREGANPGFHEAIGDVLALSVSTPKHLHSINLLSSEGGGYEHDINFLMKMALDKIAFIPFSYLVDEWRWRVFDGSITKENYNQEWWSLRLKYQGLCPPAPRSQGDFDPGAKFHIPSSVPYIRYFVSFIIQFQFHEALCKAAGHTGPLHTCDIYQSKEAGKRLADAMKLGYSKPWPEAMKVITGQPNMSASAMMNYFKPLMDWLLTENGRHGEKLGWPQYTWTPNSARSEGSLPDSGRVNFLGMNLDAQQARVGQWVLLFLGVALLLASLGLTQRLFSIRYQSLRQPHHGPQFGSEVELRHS

[8] = target: Mitogen-activated protein kinase 3 (Homo sapiens, UniProt P27361); test: DRUGMATRIX: Protein Serine/Threonine Kinase, ERK1 enzyme inhibition (substrate: Myelin Basic Protein); parameters: species or system Escherichia coli; conditions: Not Active = under 50% inhibition at 10 µM
[9] = target: T3, 5-hydroxytryptamine receptor 1A (Rattus norvegicus, UniProt P19327); assay type: cell membranes, CHO-K1, Membrane; conditions: cho-k1; also: in other assays of this panel Not Active means under 50% inhibition at 10 µM
T3 sequence (P19327 whole entry): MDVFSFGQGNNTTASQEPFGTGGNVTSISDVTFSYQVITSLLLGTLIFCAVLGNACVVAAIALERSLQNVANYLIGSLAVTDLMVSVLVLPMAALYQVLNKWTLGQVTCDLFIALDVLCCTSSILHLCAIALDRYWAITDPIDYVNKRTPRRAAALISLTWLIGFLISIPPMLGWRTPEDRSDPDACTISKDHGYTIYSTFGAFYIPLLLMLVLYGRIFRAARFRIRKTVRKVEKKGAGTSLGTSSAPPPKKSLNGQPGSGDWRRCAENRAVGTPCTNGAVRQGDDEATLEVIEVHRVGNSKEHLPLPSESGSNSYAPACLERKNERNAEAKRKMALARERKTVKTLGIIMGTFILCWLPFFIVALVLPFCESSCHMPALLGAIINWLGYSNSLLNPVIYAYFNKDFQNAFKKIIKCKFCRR

[10] = target: 5-hydroxytryptamine receptor 1B (Rattus norvegicus, UniProt P28564); assay type: cell membranes, Wistar, Cerebral cortex, Membrane; also: in other assays of this panel Not Active means under 50% inhibition at 10 µM
Sequence of 5-hydroxytryptamine receptor 1B (P28564 whole entry): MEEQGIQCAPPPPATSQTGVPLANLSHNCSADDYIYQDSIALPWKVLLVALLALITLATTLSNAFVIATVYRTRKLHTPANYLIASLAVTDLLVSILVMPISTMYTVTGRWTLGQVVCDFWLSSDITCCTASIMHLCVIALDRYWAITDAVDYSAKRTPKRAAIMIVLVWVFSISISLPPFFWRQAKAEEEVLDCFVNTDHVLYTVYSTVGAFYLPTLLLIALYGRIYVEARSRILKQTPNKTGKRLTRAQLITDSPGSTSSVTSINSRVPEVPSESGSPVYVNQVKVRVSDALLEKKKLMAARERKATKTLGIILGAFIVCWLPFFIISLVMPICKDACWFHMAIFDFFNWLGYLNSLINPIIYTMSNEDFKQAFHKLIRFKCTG

Sequence of Beta-2 adrenergic receptor (P07550 whole entry): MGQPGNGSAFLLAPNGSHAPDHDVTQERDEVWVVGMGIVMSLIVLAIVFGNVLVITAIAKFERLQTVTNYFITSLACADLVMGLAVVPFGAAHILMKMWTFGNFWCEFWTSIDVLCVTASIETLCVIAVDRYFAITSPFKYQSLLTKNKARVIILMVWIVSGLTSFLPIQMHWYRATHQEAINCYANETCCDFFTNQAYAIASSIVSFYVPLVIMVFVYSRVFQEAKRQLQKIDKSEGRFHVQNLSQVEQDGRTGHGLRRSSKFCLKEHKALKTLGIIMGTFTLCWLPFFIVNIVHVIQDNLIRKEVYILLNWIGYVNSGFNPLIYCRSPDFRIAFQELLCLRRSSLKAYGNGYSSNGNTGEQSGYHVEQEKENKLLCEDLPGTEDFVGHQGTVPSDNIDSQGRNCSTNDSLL
Sequence of 5-hydroxytryptamine receptor 4 (O70528 whole entry): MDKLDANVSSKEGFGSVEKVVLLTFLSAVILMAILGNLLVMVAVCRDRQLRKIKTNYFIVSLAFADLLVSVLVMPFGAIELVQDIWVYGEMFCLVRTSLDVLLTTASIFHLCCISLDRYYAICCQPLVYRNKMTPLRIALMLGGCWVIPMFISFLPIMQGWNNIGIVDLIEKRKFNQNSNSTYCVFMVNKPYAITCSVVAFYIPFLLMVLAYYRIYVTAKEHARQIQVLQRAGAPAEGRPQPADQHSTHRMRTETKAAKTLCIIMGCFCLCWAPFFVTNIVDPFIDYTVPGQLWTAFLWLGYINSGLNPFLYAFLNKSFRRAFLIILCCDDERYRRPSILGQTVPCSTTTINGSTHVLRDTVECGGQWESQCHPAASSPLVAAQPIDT
Sequence of Mitogen-activated protein kinase 3 (P27361 whole entry): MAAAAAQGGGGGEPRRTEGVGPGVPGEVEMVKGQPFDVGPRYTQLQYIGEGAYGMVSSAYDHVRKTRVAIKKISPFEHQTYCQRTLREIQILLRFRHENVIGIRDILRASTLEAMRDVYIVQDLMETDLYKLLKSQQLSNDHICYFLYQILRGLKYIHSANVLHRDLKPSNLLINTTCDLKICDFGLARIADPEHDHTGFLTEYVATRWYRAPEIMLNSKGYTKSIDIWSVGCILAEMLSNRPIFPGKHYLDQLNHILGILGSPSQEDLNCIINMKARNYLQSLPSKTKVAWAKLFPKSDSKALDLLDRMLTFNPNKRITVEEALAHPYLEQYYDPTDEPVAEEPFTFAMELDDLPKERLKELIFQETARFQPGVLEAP
Sequence of Platelet-activating factor receptor (P25105 whole entry): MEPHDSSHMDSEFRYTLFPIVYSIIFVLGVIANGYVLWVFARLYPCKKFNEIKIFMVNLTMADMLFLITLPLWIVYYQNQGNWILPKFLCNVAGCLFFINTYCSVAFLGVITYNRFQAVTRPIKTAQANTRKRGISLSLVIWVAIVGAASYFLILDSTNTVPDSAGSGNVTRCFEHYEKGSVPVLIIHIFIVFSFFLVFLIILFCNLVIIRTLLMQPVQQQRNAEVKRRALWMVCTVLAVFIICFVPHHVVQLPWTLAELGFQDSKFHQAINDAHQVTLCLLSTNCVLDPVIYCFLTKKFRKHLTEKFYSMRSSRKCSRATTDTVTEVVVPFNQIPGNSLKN

Row | SMILES | IC50 ([1]; read-out: IC50) | Ki ([1]; read-out: Ki) | IC50 [2] | IC50 [3] | IC50 [4] | Ki [4] | IC50 [5] | Ki [5] | IC50 [6] | IC50 [7] | IC50 [8] | IC50 [9] | IC50 [10] | IC50 [1]
1 | CC[C@H]1OC(=O)[C@H](C)[C@@H](O[C@H]2C[C@@](C)(OC)[C@@H](O)[C@H](C)O2)[C@H](C)[C@@H](O[C@@H]2O[C@H](C)C[C@H](N(C)C)[C@H]2O)[C@](C)(O)C[C@@H](C)/C(=N\OCOCCOC)[C@H](C)[C@@H](O)[C@]1(C)O [ROXITHROMYCIN] | 989 nM | 548 nM | Not Active | Not Active | Not Active | Not Active | Not Active | Not Active | Not Active | Not Active | Not Active | Not Active | Not Active | –
2 | NC(=O)c1ccccc1O [SALICYLAMIDE] | – | – | Not Active | Not Active | Not Active | Not Active | Not Active | Not Active | Not Active | Not Active | Not Active | Not Active | Not Active | Not Active
3 | Cc1ncc([N+](=O)[O-])n1CC(C)O (stereo unspecified) [SECNIDAZOLE] | – | – | Not Active | Not Active | Not Active | Not Active | Not Active | Not Active | Not Active | Not Active | Not Active | Not Active | Not Active | Not Active
4 | CN[C@@H]1[C@@H](O)[C@@H](O[C@@H]2[C@@H](O)[C@H](O[C@H]3OC(CN)=CC[C@H]3N)[C@@H](N)C[C@H]2N)OC[C@]1(C)O [SISOMICIN] | – | – | Not Active | Not Active | Not Active | Not Active | Not Active | Not Active | Not Active | Not Active | Not Active | Not Active | Not Active | Not Active
5 | CC(=O)S[C@@H]1CC2=CC(=O)CC[C@]2(C)[C@H]2CC[C@@]3(C)[C@@H](CC[C@@]34CCC(=O)O4)[C@H]12 [SPIRONOLACTONE] | – | – | Not Active | Not Active | Not Active | Not Active | Not Active | Not Active | Not Active | Not Active | Not Active | Not Active | Not Active | Not Active
6 | C[C@]12Cc3c[nH]nc3C[C@@H]1CC[C@@H]1[C@@H]2CC[C@@]2(C)[C@H]1CC[C@]2(C)O [STANOZOLOL] | – | – | Not Active | Not Active | Not Active | Not Active | Not Active | Not Active | Not Active | Not Active | Not Active | Not Active | Not Active | Not Active
7 | CN(N=O)C(=O)N[C@@H](C=O)[C@@H](O)[C@H](O)[C@H](O)CO [STREPTOZOCIN] | – | – | Not Active | Not Active | Not Active | Not Active | Not Active | Not Active | Not Active | Not Active | Not Active | Not Active | Not Active | Not Active
8 | Cc1cc(NS(=O)(=O)c2ccc(N)cc2)no1 [SULFAMETHOXAZOLE] | – | – | Not Active | Not Active | Not Active | Not Active | Not Active | Not Active | Not Active | Not Active | Not Active | Not Active | Not Active | Not Active
9 | Nc1ccc(S(N)(=O)=O)cc1 [SULFANILAMIDE] | – | – | Not Active | Not Active | Not Active | Not Active | Not Active | Not Active | Not Active | Not Active | Not Active | Not Active | Not Active | Not Active
10 | Nc1ccc(S(=O)(=O)Nc2ccnn2-c2ccccc2)cc1 [SULFAPHENAZOLE] | – | – | Not Active | Not Active | Not Active | Not Active | Not Active | Not Active | Not Active | Not Active | Not Active | Not Active | Not Active | Not Active
